A short description of data set [1]: Abiotic CYP (aCYP) oxidation, remaining parent compound (Cparent-Ratio).
The target of another data set is T1, Estrogen Receptor ERα (Homo sapiens, UniProt P03372).
T1 sequence (P03372 311-547 limits assumed): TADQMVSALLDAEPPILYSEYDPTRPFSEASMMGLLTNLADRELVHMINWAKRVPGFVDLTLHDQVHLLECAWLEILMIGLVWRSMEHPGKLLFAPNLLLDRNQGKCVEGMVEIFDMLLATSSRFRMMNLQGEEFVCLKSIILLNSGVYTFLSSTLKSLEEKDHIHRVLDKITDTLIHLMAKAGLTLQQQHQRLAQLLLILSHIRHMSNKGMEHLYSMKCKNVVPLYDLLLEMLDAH
The data set can be described thus: cell-based. The note with it: This Study. An excerpt:
All bioassay media components and the ERα-UAS-bla GripTite and PPARγ-UAS-bla cells were obtained from Thermo Fisher Scientific (Waltham, MA, USA). AREc32 reporter gene cells based on MCF7 were provided by C. Roland Wolf (Cancer Research UK); AhR CALUX cells (H4L7.5c2 derived from H4IIe) were provided by Michael Denison (UC Davis, USA); and SH-SY5Y cells were purchased from Sigma-Aldrich.
Cell culture conditions and bioassay protocols including response detection are provided in Text S2.1–2.4 and Table S3. − Cell viability was determined from cell confluency using an IncuCyte S3 Live-Cell Analysis System (Sartorius AG, Essen, Germany) before and after exposure, except for SH-SY5Y cells (live–dead staining with Nuclear Green LcS1 and propidium iodide, Abcam, UK). For metabolic activation experiments, cell viability was assessed using the ToxBLAzer DualScreen Kit (Thermo Fisher Scientific) to capture the remaining toxicity in ERα-UAS-bla GripTite after treatment with the aCYP catalyst (details in Text S2.4).
For ARE, the concentration that triggered an induction ratio of 1.5 (ECIR1.5) was used as the benchmark value, as detailed in Text S2.5. IC10 values also served as a threshold for data analysis in all assays; only concentrations below IC10 were considered when deriving EC10 or ECIR1.5.
The maximum efficacy (Emax%) refers to the maximum of the log–logistic concentration–response curve attained by test chemicals compared to the reference chemical’s maximum and was obtained for both ERα and PPARγ. […]
S2: Cell culture and bioassays
S2.1: Cell Culturing Conditions
All suppliers and sources are given in detail in SI-Excel S3. The bioassay media for the different assays were prepared as follows: Assay medium for ER alpha-UAS-bla GripTite (ERα) and […]
2% charcoal-stripped FBS, and 100 U/mL penicillin-streptomycin. […]
S2.2: Cell Seeding and Incubation. For all bioassays, cell suspensions in the respective assay medium were dispensed into each well of 384-well plates using a MultiFlo Dispenser (Biotek, (now Agilent), Winooski, VT, U.S.). After seeding, the plates were incubated at 37° C and 5% CO₂ for […]. The final cell densities and plate types were as follows: Black poly-D-lysine […]
6500 cells/well, ERα: 5000 cells/well. White 384-well plates with a clear bottom (Product No. […]
S2.3: Chemical Dosing and Assay Analysis Procedures.

The subject of another data set is ERα. The note with it: ref Pelch et al 2019; cited from earlier work.
Data set [2] has as its system Tox21 assays. The data set can be described thus: Re-evaluated Tox21 data (Adamovsky et al.), REPBPA and SRbaseline.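 As to all read-outs here: published Tox21 results reanalysed with a revised model predicting baseline toxicity.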 The note with it: for REPBPA: Relative Effect Potency; for SRbaseline: Specificity Ratio.
Text: We also reanalyzed the Tox21 data of Adamovsky et al. with the updated baseline toxicity prediction model (Table S2).
The test system of data set [3] is Tox21 assays. The note with it: re-evaluated Tox21 data, ref Adamovsky et al 2024, cited from earlier work.
Details of data set [4]: method as in ref EFSA. The conditions noted are these: in vitro and in vivo data; ref EFSA; cited from earlier work.
On the set-up of data set [5]: method as in ref 12 (ECHA). The note with it: ref 12 (ECHA), cited from earlier work.
The test system of the next data set is keratinocytes. Also noted: method as in Son et al. The conditions noted are these: ref Son et al.; cited from earlier work.
Where [6] appears, read: TOX21_AR_LUC_MDAKB2_Antagonist_0,5nM_R1881.
Where [7] appears, read: TOX21_PPARg_BLA_antagonist_ratio.

Structures are written as SMILES. Read-outs that look alike come from different tables or passages of the source.

In the case of `O=S(=O)(c1ccc(O)cc1)c1ccccc1O` [2, 4BPS], the “% Loss” value in data set [1] (Table S9, loss of parent after aCYP oxidation) was -4.66%. Also, the “Cparent-Ratio Mean” value in data set [1] (Table S9, mean of two replicate experiments) was found to be 1.05. Besides, in data set [1] (Table S9, replicate 1), the “Cparent-Ratio Rep.1 %” value was found to be 108.33%. The “Cparent-Ratio Rep.1” value in data set [1] (Table S9, replicate 1, as fraction) is on record as 1.08. Besides, in data set [1] (Table S9, replicate 2), the “Cparent-Ratio Rep.2 %” value was 100.98%. The “Cparent-Ratio Rep.2” value in data set [1] (Table S9, replicate 2, as fraction) came to 1.01.
For the compound `O=S(=O)(c1ccc(O)cc1)c1ccccc1O` [24BPS], the Efficacy % was 19.00% at Estrogen Receptor ERα and 24.30% in the data set on ERα. The compound also registered an EC10 at Estrogen Receptor ERα (ERα, in M) of 1.98E-05. Also, the REPBPA at Estrogen Receptor ERα (relative estrogenic potency vs BPA) amounted to 1.87E-02.
`Cc1cc(C(C)(C)c2ccc(O)c(C)c2)ccc1O` [BPC]: the REPBPA in the data set with Tox21 assays [2] (ATG_PPARg_TRANS_up) worked out at 0.85; in the data set on Tox21 assays [2] (setting [6]), 2.85. For the same compound, the figures for the SRbaseline in the data set on Tox21 assays [2] (ATG_PPARg_TRANS_up), in the data set on Tox21 assays [2] (setting [6]) and in the data set with Tox21 assays [2] (setting [7]) were 17.78, 39.40 and 10.83, respectively. The EC10 is 1.88 µM in the data set with Tox21 assays [3] (ATG_PPARg_TRANS_up), 0.85 µM with Tox21 assays [3] (setting [6]) and 3.09 µM in the data set on Tox21 assays [3] (setting [7]).
With `CC1(C)C(O)C(C)(C)C1O` (centres unmarked) [TMCD, 2,2,4,4-tetramethyl-1,3-cyclobutanediol], the genotoxicity categorisation result in data set [4] was “nongenotoxic”. Further, in data set [5] (aqueous solution), the “degradation in OECD guideline test 301B” value is “no degradation”. The “time reported to remain stable” value in data set [5] is 22 days. Also, in data set [1], the “parent compound during aCYP oxidation” value was “remained unchanged”. In addition, the “concentration with statistically significant reduced cell viability” value in the data set with keratinocytes was 350 µM.

Source of the values: article PMC12392461, “Beyond Estrogenicity: A Comparative Assessment of Bisphenol A and Its Alternatives in In Vitro Assays Questions Safety of Replacements” (Environmental Science & Technology, 2025).
